For one assay, the target named is Serine protease 1 (Homo sapiens, UniProt P07477). The assay can be described thus: Inhibitory activity against human trypsin.
The species named for the next assay is Homo sapiens. Briefly: Concentration of inhibitor in human plasma required to double the activated partial thromboplastin time. The class given is functional.
The next assay has as its target Prothrombin (Homo sapiens, UniProt P00734). The assay can be described thus: Inhibitory activity against thrombin IIa.
The target of assay [1] is Tissue-type plasminogen activator (Homo sapiens, UniProt P00750). The assay can be described thus: Inhibitory activity against Tissue plasminogen activator.
Chain of Tissue-type plasminogen activator (P00750 whole entry): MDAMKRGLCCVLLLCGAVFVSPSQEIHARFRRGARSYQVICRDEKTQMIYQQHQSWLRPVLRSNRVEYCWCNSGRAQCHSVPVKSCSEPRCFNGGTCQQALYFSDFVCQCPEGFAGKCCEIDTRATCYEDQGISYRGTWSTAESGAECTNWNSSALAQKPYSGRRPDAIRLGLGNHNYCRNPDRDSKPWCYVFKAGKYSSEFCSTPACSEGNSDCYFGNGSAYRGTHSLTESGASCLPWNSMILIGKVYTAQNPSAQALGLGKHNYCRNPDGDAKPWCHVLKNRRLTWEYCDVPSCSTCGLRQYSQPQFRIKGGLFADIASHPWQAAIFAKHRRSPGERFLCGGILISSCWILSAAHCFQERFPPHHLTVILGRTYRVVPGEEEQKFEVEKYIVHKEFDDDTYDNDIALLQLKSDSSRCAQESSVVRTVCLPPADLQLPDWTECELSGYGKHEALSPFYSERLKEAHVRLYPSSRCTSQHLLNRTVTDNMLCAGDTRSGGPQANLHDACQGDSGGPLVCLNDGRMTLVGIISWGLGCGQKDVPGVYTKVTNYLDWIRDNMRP

Chain of Serine protease 1 (P07477 whole entry): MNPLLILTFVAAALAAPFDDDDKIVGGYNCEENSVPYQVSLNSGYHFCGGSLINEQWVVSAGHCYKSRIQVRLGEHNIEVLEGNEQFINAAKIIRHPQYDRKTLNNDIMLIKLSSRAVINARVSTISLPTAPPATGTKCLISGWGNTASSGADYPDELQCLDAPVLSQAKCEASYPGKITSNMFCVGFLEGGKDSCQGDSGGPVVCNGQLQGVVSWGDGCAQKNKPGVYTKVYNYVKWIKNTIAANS

For the compound `O=C1COc2ccc(Cl)cc2CNC(=O)[C@@H]2CCCN2C(=O)[C@@H](C2CCCCC2)NC(=O)CN1`, the values for the inhibition constant (Ki) (on Serine protease 1; on Prothrombin; in assay [1]) were 9300 nM, 2.9 nM and 5600 nM, respectively. The “2*APTT” value in the assay filed under Homo sapiens amounted to 0.69 µM.
Taken in the same sequence, the figures for `O=C1Cn2c(Cl)cnc(c2=O)N[C@@H](Cc2ccccc2)CNCCCCOc2ccc(Cl)cc2CN1` were 90 nM, 0.2 nM, 20 nM and 0.74 µM.
In turn, `O=C1Cn2c(Cl)cnc(c2=O)N[C@@H](Cc2ccccc2)CNCCOc2ccc(Cl)cc2CN1` yielded a Ki at Prothrombin of 560 nM.
Consider `O=C1Cn2c(Cl)cnc(c2=O)N[C@@H](Cc2ccccc2)NCCCCCCOc2ccc(Cl)cc2CN1`, for which the Ki came to 240 nM at Serine protease 1 and 0.13 nM on Prothrombin. Further, the “2*APTT” value in the assay filed under Homo sapiens is 3.17 µM.
As to `O=C1Cn2c(Cl)cnc(c2=O)N[C@@H](Cc2ccccc2)CNCCCNCCc2ccccc2CN1`, the Ki stood at 2100 nM on Serine protease 1 and 640 nM in assay [1]. Also, the “2*APTT” value in the assay listed under Homo sapiens was 0.47 µM.
As to `O=C1Cn2c(Cl)cnc(c2=O)N[C@@H](Cc2ccccc2)CNCCCCCOc2ccccc2CN1`, the figures for the Ki (on Serine protease 1; at Prothrombin; in assay [1]) were 6700 nM, 2.5 nM and 360 nM, respectively. Also, the “2*APTT” value in the assay listed under Homo sapiens stood at 0.6 µM.
Taken in the same sequence, the figures for `O=C1Cn2c(Cl)cnc(c2=O)N[C@@H](Cc2ccccc2)CNCCCCNCc2ccccc2CN1` were 41000 nM, 0.51 nM, 165000 nM and 0.43 µM.
`O=C1Cn2c(Cl)cnc(c2=O)N[C@@H](Cc2ccccc2)CNCCCOc2ccc(Cl)cc2CN1` showed an inhibition constant (Ki) on Prothrombin of 26 nM.
`CCN(CC)C(=O)CN[C@H](C(=O)N1CCC[C@H]1C(=O)NCc1cc(Cl)ccc1Cl)C1CCCCC1` yielded a Ki on Prothrombin of 0.31 nM.
Regarding `O=C1Cn2c(Cl)cnc(c2=O)N[C@@H](Cc2ccccc2)CNCCCCCOc2ccc(Cl)cc2CN1`, the results for the Ki (at Serine protease 1; on Prothrombin; in assay [1]) were 80 nM, 0.05 nM and 6 nM, respectively. In the assay filed under Homo sapiens, the “2*APTT” value was determined as 1.22 µM.
Taken in the same sequence, the figures for `CN1CCCCCOc2ccc(Cl)cc2CNC(=O)Cn2c(Cl)cnc(c2=O)N[C@@H](Cc2ccccc2)C1` were 40 nM, 0.02 nM, 3 nM and 1.89 µM.
For `O=C1COc2ccc(Cl)cc2CNC(=O)[C@@H]2CCCN2C(=O)[C@@H](C2CCCCC2)NC(=O)CCCN1`, in that order: 5000 nM, 0.4 nM, 4300 nM and 0.31 µM.
`O=C1Cn2c(Cl)cnc(c2=O)N[C@@H](Cc2ccccc2)CNC(=O)OCCCCOc2ccc(Cl)cc2CN1`: the Ki came out at 4000 nM on Serine protease 1 and 0.63 nM on Prothrombin. In addition, the “2*APTT” value in the assay filed under Homo sapiens is 1.97 µM.
As for `O=C1COc2ccc(Cl)cc2CNC(=O)[C@@H]2CCCN2C(=O)C(C2CCCCC2)NC(=O)CCN1` (some centres undefined), the Ki on Serine protease 1 was 21500 nM; in assay [1], 8900 nM. In addition, the “2*APTT” value in the assay listed under Homo sapiens turned out to be 0.36 µM.
At Prothrombin, `N[C@H](C(=O)N1CCC[C@H]1C(=O)NCc1cc(Cl)ccc1Cl)C1CCCCC1` came in with a Ki of 5 nM. In other words, the single-digit nanomolar range.
Turning to `O=C1Cn2c(Cl)cnc(c2=O)N[C@@H](Cc2ccccc2)CNC(=O)OC/C=C/COc2ccc(Cl)cc2CN1`, the Ki is 580 nM on Serine protease 1, 0.17 nM at Prothrombin and 480 nM in assay [1]. For the same compound, the “2*APTT” value in the assay filed under Homo sapiens turned out to be 0.87 µM.
Turning to `O=C1Cn2c(Cl)cnc(c2=O)N[C@@H](Cc2ccccc2)CNC(=O)OC/C=C\COc2ccc(Cl)cc2CN1`, the Ki was 110 nM at Serine protease 1, 0.06 nM on Prothrombin and 6 nM in assay [1]. Also, in the assay filed under Homo sapiens, the “2*APTT” value came to 0.78 µM.
For the compound `O=C1Cn2c(Cl)cnc(c2=O)N[C@@H](Cc2ccccc2)CNCCOCCOc2ccc(Cl)cc2CN1`, the Ki on Serine protease 1 stood at 110 nM; on Prothrombin, 0.05 nM; in assay [1], 150 nM. Moreover, in the assay listed under Homo sapiens, the “2*APTT” value stood at 0.56 µM.
Taken in the same sequence, the figures for `O=C1COc2ccc(Cl)cc2CNC(=O)[C@@H]2CCCN2C(=O)[C@@H](C2CCCCC2)NC(=O)CCCCN1` were 7700 nM, 1.3 nM, 48000 nM and 0.36 µM.
For `O=C1Cn2c(Cl)cnc(c2=O)N[C@@H](Cc2ccccc2)CNCCOCCOc2ccccc2CN1`, in that order: 4600 nM, 2.1 nM, 3200 nM and 0.39 µM.
For the compound `CN1CCOc2ccccc2CNC(=O)Cn2c(Cl)cnc(c2=O)N[C@@H](Cc2ccccc2)CNC(=O)C1`, the Ki at Serine protease 1 is 17000 nM; at Prothrombin it was 3 nM; in assay [1], 3900 nM. Moreover, in the assay filed under Homo sapiens, the “2*APTT” value worked out at 0.5 µM.
`CCNC(=O)Oc1ccc(Cl)cc1CNC(=O)[C@@H]1CCCN1C(=O)[C@@H](N)C1CCCCC1` showed a Ki on Prothrombin of 0.74 nM.

Values taken from ChEMBL document CHEMBL1136169, “Design and synthesis of potent and selective macrocyclic thrombin inhibitors” (Bioorg Med Chem Lett, 2003).
